Holding throughout (assay type): cell-based, human
The subject of one experiment is ADAM 17. Kind of experiment: ADAM 17 expression by real-time qPCR in SH-SY5Y cells. The following applies: peptide 0.001, 0.01, 0.1, or 1 mM, 24 hours, vs control group without peptide. As to the method:
(§1) ADAM 17 is an enzyme that removes APP from the cell membrane surface by cleaving it into a non-toxic fragment, sAPPa. Therefore, the increased expression of ADAM 17 may be used as an indicator of a therapeutic effect on a neurodegenerative disease. Specifically, the prepared peptides were added to SH-SY5Y, a neural cell line, at a concentration of 0.001, 0.01, 0.1, or 1 mM, and cultured at 37° C. and 5% CO2 for 24 hours. Afterward, total RNA was extracted from the culture, cDNA was synthesized, and real-time qPCR was performed using the ADAM 17 primers shown in Table 4 below to measure the expression level of […]. In addition, the prepared peptides were added to SH-SY5Y, a human neural cell line, at a concentration of 0.001, 0.01, 0.1, or 1mM, and cultured at 37° C. and 5% CO2 for 24 hours. Afterward, the expression of ADAM 17 protein from the culture and the expression of sAPPa, which was cleaved from APP by ADAM 17 and ADAM 10 and released, were confirmed through Western blotting using antibodies against each protein. In addition, the distribution of APP on the surface of a nerve cell membrane was analyzed using flow cytometric analysis. Meanwhile, a group to which no peptide was added was used as a control group.
The prepared peptides were added to SH-SY5Y, a neural cell line, at a concentration of 0.001, 0.01, 0.1, or 1 mM, and the cells were cultured at 37° C. and 5% CO2 for 24 hours. Afterward, total RNA was extracted from the culture, cDNA was synthesized, and real-time qPCR was performed using the ADAM 17 primers in Table 4 above to measure the expression level of ADAM 17. Meanwhile, a group to which no peptide was added was used as a control group.
In general terms: In qPCR the cycle at which signal appears reflects the starting amount.

Experiment [1] deals with Brain Derived Neurotrophic Factor (BDNF). Kind of experiment: BDNF expression by real-time qPCR in SH-SY5Y cells. The following applies: peptide 0.001, 0.01, 0.1, or 1 mM, 24 hours, vs control group without peptide. As for the experimental part: In the present example, to confirm the effect of improving or treating a degenerative neurological disease through the regeneration of the nervous system by peptide treatment, the effect of increasing the expression of Brain Derived Neurotrophic Factor (BDNF) was examined. Specifically, the prepared peptides were added to SH-SY5Y, a human neural cell line, at a concentration of 0.001, 0.01, 0.1, or 1 mM, and the cells were cultured at 37° C. and 5% CO2 for 24 hours. Afterward, total RNA was extracted from the culture, cDNA was synthesized, and real-time qPCR was performed using the BDNF primers shown in Table 8 below to measure the expression level of BDNF. Meanwhile, a group to which no peptide was added was used as a control group.

Experiment [2] concerns amyloid precursor protein (APP). As to the kind of experiment: APP expression by real-time qPCR in SH-SY5Y cells. The following applies: peptide 0.001, 0.01, 0.1, or 1 mM, 24 hours, vs control group without peptide. As to the method: (§2) In the present example, the effect of inhibiting the expression of APP by peptide treatment was confirmed. To this end, the prepared peptides were added at a concentration of 0.001, 0.01, 0.1, or 1 mM to SH-SY5Y, which is a human neural cell line obtained by isolating cells from the bone marrow of a human having neuroblastoma and proliferating them, and then the cells were cultured for 24 hours. Afterward, total RNA was extracted from the culture, cDNA was synthesized, and real-time quantitative polymerase chain reaction (qPCR) was performed using the APP primers shown in Table 2 below to measure the expression level of amyloid precursor protein (APP). Meanwhile, a group to which no peptide was added was used as a control group, and a group to which a random peptide was added (NRP1: AFMVDNEAIYDICR (SEQ ID NO: 9)) was used as a comparative group.
as §2, with “of amyloid precursor protein” for “of APP”, “real-time qPCR” for “real-time quantitative polymerase chain reaction (qPCR)”, “2 above” for “2 below”, “of APP.” for “of amyloid precursor protein (APP).”

In a further experiment the test system is ADAM 10. As to the kind of experiment: ADAM 10 expression by real-time qPCR in SH-SY5Y cells. The note with it: peptide 0.001, 0.01, 0.1, or 1 mM, 24 hours, vs control group without peptide. As for the experimental part: ADAM 10 is an alpha-secretase that cleaves APP into a non-toxic fragment and inhibits the production of beta-amyloid (β-amyloid, Ab1-42, 1-40). Therefore, the increased expression of ADAM 10 may be used as an indicator of a therapeutic effect on a neurodegenerative disease. Specifically, the prepared peptides were added to SH-SY5Y, a human neural cell line, at a concentration of 0.001, 0.01, 0.1, or 1 mM, and the cells were cultured at 37° C. and 5% CO2 for 24 hours. Afterwards, total RNA was extracted from the culture, cDNA was synthesized, and real-time qPCR was performed using the ADAM 10 primers shown in Table 3 below to measure the expression level of ADAM 10. Meanwhile, a group to which no peptide was added was used as a control group.

In another experiment the test system is ADAM 17 protein. Kind of experiment: ADAM 17 protein expression by Western blotting in SH-SY5Y cells. The note with it: peptide 0.001, 0.01, 0.1, or 1 mM, 24 hours, vs control group without peptide. As for the experimental part: as §1
The next experiment concerns sAPPa. As to the kind of experiment: sAPPa expression by Western blotting in SH-SY5Y cells. The following applies: peptide 0.001, 0.01, 0.1, or 1 mM, 24 hours, vs control group without peptide. As for the experimental part: as §1
In experiment [3] the test system is IDE (insulin degrading enzyme). As to the kind of experiment: IDE expression by real-time qPCR in SH-SY5Y cells. The note with it: peptide 0.01, 0.1, or 1 mM, 24 hours, vs control group without peptide. As for the experimental part: IDE is an enzyme that degrades senile plaques produced and aggregated by beta-amyloid (Ab1-42, 1-40). Therefore, the increased expression of IDE may be used as an indicator of a therapeutic effect of a neurodegenerative disease. Specifically, the prepared peptides were added to SH-SY5Y, a human neural cell line, at a concentration of 0.01, 0.1, or 1 mM, and the cells were cultured at 37° C. and 5% CO2 for 24 hours. Afterward, total RNA was extracted from the culture, cDNA was synthesized, and real-time qPCR was performed using the IDE primers in Table 5 below to measure the expression level of IDE. Meanwhile, a group to which no peptide was added was used as a control group.

The next experiment concerns IL-10. As to the kind of experiment: IL-10 expression by real-time qPCR in SH-SY5Y cells. The following applies: peptide 0.001, 0.01, 0.1, or 1 mM, 24 hours, vs control group without peptide. As to the method:
In the present example, to confirm the effect inhibiting a neuroinflammatory response by peptide treatment, which is one of the main causes of a neurodegenerative disease, the effect of increasing the expression of IL-10, one of the anti-inflammatory cytokines, was confirmed. Specifically, the prepared peptides were added to SH-SY5Y, a human neural cell line, at a concentration of 0.001, 0.01, 0.1, or 1 mM, and the cells were cultured at 37° C. and 5% CO2 for 24 hours. Afterward, total RNA was extracted from the culture, cDNA was synthesized, and real-time qPCR was performed using the IL-10 primers in Table 6 below to measure the expression level of IL-10. Meanwhile, a group to which no peptide was added was used as a control group.
In the present example to confirm the effect of inhibiting a neuroinflammatory response, which is one of the main causes of a neurodegenerative disease, by peptide treatment, the effect of increasing the expression of IL-10, one of the anti-inflammatory cytokines, was attempted. Specifically, the prepared peptide was added to SH-SY5Y, a human neural cell line, at a concentration of 0.001, 0.01, 0.1, or 1 mM, and the cells were cultured at 37° C. and 5% CO2 for 24 hours. Afterward, total RNA was extracted from the culture, cDNA was synthesized, and real-time qPCR was performed using the IL-10 primers in Table 6 above to measure the expression level of IL-10. Meanwhile, a group to which no peptide was added was used as a control group.

The subject of a further experiment is SH-SY5Y. As to the kind of experiment: Neurite growth in SH-SY5Y cells (microscope, length). The note with it: peptide 0.01, 0.1, or 1 mM, 24 hours. As to the method:
In the present example, to confirm the regeneration of neurons by treatment with the peptides, the growth of neurites was confirmed. Specifically, the prepared peptides were added to SH-SY5Y, a human neural cell line, at a concentration of 0.01, 0.1, or 1 mM, and the cells were cultured for 24 hours. Afterward, the grown neurites were confirmed through a microscope, and their length was measured and evaluated.

“Also recorded” adds a separate entry of the source.

Turning to INLLKSEGKIIKSL [Peptide-10], the “expression of ADAM 17 (gene, qPCR)” value with ADAM 17 is on record as “increased”. In addition, the “expression of BDNF” value in experiment [1] was “increased”.

With INIKVLIAKKIL [Peptide-4], in [2], the “expression of APP” value is on record as “inhibited”. In addition, in the experiment on ADAM 10, the “expression of ADAM 10” value is on record as “increased”. Also, the “expression of ADAM 17 (gene, qPCR)” value in the experiment with ADAM 17 was “increased”. In addition, the “expression of ADAM 17 protein (Western blotting)” value (from here on “expression of ADAM 17 protein”) in the experiment on ADAM 17 protein was “increased”. Moreover, the “expression of sAPPa (Western blotting)” value in the experiment with sAPPa was “increased”. Besides, the “expression of IDE” value in [3] is reported as “increased”. The “expression of IL-10” value in the experiment on IL-10 is reported as “increased”.

With GRPPGFSLAR [Peptide-11], in experiment [2], the “expression of APP” value is on record as “inhibited”. The “expression of ADAM 17 (gene, qPCR)” value with ADAM 17 is on record as “increased”. In addition, the “expression of IL-10” value in the experiment on IL-10 is given as “increased”. Besides, the “expression of BDNF” value in [1] is “increased; also recorded: more significant”.

Turning to INLKALAAKIKIL [Peptide-3], the “expression of ADAM 10” value with ADAM 10 is listed as “increased”. Further, the “expression of IDE” value in experiment [3] is on record as “increased”. In the experiment with IL-10, the “expression of IL-10” value is listed as “increased”.

For KALAALAKKIL [Peptide-7], in experiment [2], the “expression of APP” value is recorded as “inhibited”. For the same sequence, the “expression of ADAM 10” value in the experiment with ADAM 10 is reported as “increased”. Also, the “expression of ADAM 17 protein” value with ADAM 17 protein is listed as “increased”. Also, the “expression of sAPPa (Western blotting)” value with sAPPa is “increased”. For the same sequence, the “expression of IDE” value in experiment [3] was “increased”. Further, the “expression of IL-10” value with IL-10 is reported as “increased”.

For LNLRGLAKKKL [Peptide-6], in [3], the “expression of IDE” value is reported as “increased”. Besides, the “length of the neurites” value in the experiment on SH-SY5Y was “increased”.

With LNIRGLGAKKKI [Peptide-5], the “expression of APP” value in [2] is “inhibited”. Besides, the “expression of ADAM 10” value with ADAM 10 is “increased”. In addition, the “expression of IDE” value in experiment [3] is “increased”. The “expression of IL-10” value in the experiment with IL-10 is given as “increased”.

As for LKLKALAALIKKIL [Peptide-1], the “expression of APP” value in experiment [2] was “inhibited”. Moreover, the “expression of ADAM 17 (gene, qPCR)” value in the experiment with ADAM 17 is “increased”. Moreover, the “expression of ADAM 17 protein” value in the experiment on ADAM 17 protein was “increased”. In addition, the “expression of sAPPa (Western blotting)” value in the experiment with sAPPa is “increased”. For the same sequence, in experiment [3], the “expression of IDE” value is “increased”. Further, the “expression of IL-10” value with IL-10 is reported as “increased”. Further, the “length of the neurites” value in the experiment on SH-SY5Y is “increased”.

Consider GRILGFSPFR [Peptide-12], for which the “expression of APP” value in experiment [2] is “inhibited”. Besides, the “expression of ADAM 17 (gene, qPCR)” value in the experiment on ADAM 17 is “increased”. For the same sequence, in the experiment with IL-10, the “expression of IL-10” value is reported as “increased”. Besides, the “expression of BDNF” value in experiment [1] is “increased; also recorded: more significant”.

As for INLLKIAGKIINIL [Peptide-9], in the experiment on ADAM 17, the “expression of ADAM 17 (gene, qPCR)” value is “increased”. For the same sequence, the “expression of IL-10” value in the experiment on IL-10 was “increased; also recorded: more significant”. For the same sequence, in experiment [1], the “expression of BDNF” value is “increased”.

As to KALAALAKK [Peptide-8], the “expression of APP” value in [2] is “inhibited”. In addition, in the experiment with ADAM 10, the “expression of ADAM 10” value is on record as “increased”. Further, the “expression of IDE” value in experiment [3] was “increased”.

For IKLLSIVAWAKKKI [Peptide-2], the “expression of IDE” value in [3] is “increased”. Further, in the experiment on SH-SY5Y, the “length of the neurites” value is recorded as “increased”.
